Key:
Hep3B = experiment: MTT assay, Hep 3B cells; assay type: cell-based; conditions: Homo sapiens
Procedure: (§1) MTT (3-(4,5-Dimethylthiazol-2-yl)-2,5-diphenyltetrazolium bromide) assays.^21,22 HL-60, HCT-116, Hep 3B, H460, Detroit 551 and HT29/FuR cells were treated with tested compounds for the indicated periods. After treatment, cells were washed once with PBS and incubated with MTT (Sigma, St. Louis, Mo., USA) for 2 h. The formazan precipitate was dissolved in 150 μL of DMSO, and the absorbance was measured with an ELISA reader at 570 nm.
(§2) HL-60, Hep 3B, H460, MES-SA, MES-SAID x5 and Detroit 551 cells were treated with vehicle or test compounds for 48 h. The cell growth rate was determined by MTT (3-(4,5-dimethyl-thiazol-2-yl)-2,5-diphenyltetrazoliun bromide) reduction assay.
as §1, with “assays.” for “assays.^21,22”, “HCT-116, A549,” for “HCT-116,”, “KB, Kb-VIN” for “H460, Detroit 551”, “DU145” for “HT29/FuR”
as §1, with “assays.” for “assays.^21,22”, “HL-60,” for “HL-60, HCT-116,”, “H460, A498, Colo205 and” for “H460,”, “551” for “551 and HT29/FuR”

Detroit 551 = experiment: MTT assay, Detroit 551 normal human cells; assay type: cell-based; conditions: Detroit 551
Procedure: as §1, §2
as §1, with “assays.” for “assays.^21,22”, “HL-60,” for “HL-60, HCT-116,”, “H460, A498, Colo205 and” for “H460,”, “551” for “551 and HT29/FuR”

MES-SA/Dx5 = experiment: MTT assay, MES-SA/Dx5 cells; assay type: cell-based, human; conditions: for IC50: Homo sapiens, MES-SA/Dx5, 48 hrs; for Ratio Of SA/Dx5: IC50 MES-SA/Dx5 over IC50 MES-SA
Procedure: as §2

MES-SA = experiment: MTT assay, MES-SA cells; assay type: cell-based; conditions: Homo sapiens, 48 hrs
Procedure: as §2

H460 = experiment: MTT assay, H460 cells; assay type: cell-based; conditions: Homo sapiens, NCI-H460
Procedure: as §1, §2
as §1, with “assays.” for “assays.^21,22”, “HL-60,” for “HL-60, HCT-116,”, “H460, A498, Colo205 and” for “H460,”, “551” for “551 and HT29/FuR”

HL-60 = experiment: MTT assay, HL-60 cells; assay type: cell-based; conditions: Homo sapiens
Procedure: as §1, §2
as §1, with “assays.” for “assays.^21,22”, “HCT-116, A549,” for “HCT-116,”, “KB, Kb-VIN” for “H460, Detroit 551”, “DU145” for “HT29/FuR”
as §1, with “assays.” for “assays.^21,22”, “HL-60,” for “HL-60, HCT-116,”, “H460, A498, Colo205 and” for “H460,”, “551” for “551 and HT29/FuR”

HT29/5FuR = experiment: MTT assay, HT29/5FuR cells; assay type: cell-based; conditions: Homo sapiens, HT-29, Table 1, 48 h
Procedure: as §1

[1] = tested on: HL-60, HCT-116, Hep3B, H-460; experiment: Cytotoxicity screen (MTT) against human cancer cell lines, results in words; assay type: cell-based; conditions: comparison within sub-series or with CHM-2133
Procedure: as §1, §2

HCT116 = experiment: MTT assay, HCT-116 cells; assay type: cell-based; conditions: Homo sapiens, Table 1, 48 h
Procedure: as §1
as §1, with “assays.” for “assays.^21,22”, “HCT-116, A549,” for “HCT-116,”, “KB, Kb-VIN” for “H460, Detroit 551”, “DU145” for “HT29/FuR”

[2] = Homo sapiens, Table 3, B-2 series, 48 hrs
[3] = Table 1, 48 h, MTT, normal human cell

Compound	IC50 (Hep3B; Table 3, B-2 series, 48 hrs) [nM]	IC50 (H460; Table 3, B-2 series, 48 hrs) [nM]	melting point [°C]	IC50 (HL-60; Table 3, B-2 series, 48 hrs) [nM]	IC50 (HT29/5FuR) [nM]	IC50 (Hep3B; Table 1, 48 h, MTT) [nM]	IC50 (HCT116) [nM]	IC50 (H460; Table 1, 48 h, MTT) [nM]	IC50 (HL-60; Table 1, 48 h, MTT) [nM]	IC50 (Detroit 551; [2]) [nM]	IC50 (MES-SA/Dx5; Table 3, B-2 series) [nM]	Ratio Of SA/Dx5 (MES-SA/Dx5; Table 3, B-2 series)	IC50 (MES-SA; Table 3, B-2 series) [nM]	IC50 (Detroit 551; [3]) [nM]	cytotoxicity (in words) [1]	further results
COc1cc2c(cc1O)N=C(c1ccc(F)cc1)CC2=O [Compound 45, 2-(4-Fluorophenyl)-7-hydroxy-6-methoxyquinolin-4-one]			352 to 354		370	> 100000	> 100000	> 100000	38200					> 100000	weaker	
COc1cccc(C2=Nc3ccc(N4CCCC4)cc3C(=O)C2)c1OC [Compound 127, 2-(2,3-Dimethoxyphenyl)-6-pyrrolidinoquinolin-4-one]	1200	1780	258 to 260	530						> 20000	1710	2.13	802			
COc1ccccc1C1=Nc2ccc(N3CCCC3)cc2C(=O)C1 [Compound 131, 2-(2-Methoxyphenyl)-6-pyrrolidinoquinolin-4-one]	300	570	312 to 313	130						> 10000	451	1.01	445			
COc1cc2c(cc1O)N=C(c1ccccc1F)CC2=O [Compound 43, 2-(2-Fluorophenyl)-7-hydroxy-6-methoxyquinolin-4-one]			277 to 279		290	5300	5800	4400	1300					29700	greater cytotoxicity	
O=C1CC(c2ccc(F)cc2)=Nc2ccc3c(c21)OCO3 [Compound 21, 2-(4-Fluorophenyl)-5,6-methylenedioxyquinolin-4-one]			286 to 288		530	> 10000	> 10000	> 10000	> 10000					> 10000	weaker	

More lines, main results first:

IC50 (Hep3B; Table 3, B-2 series, 48 hrs) [nM]	IC50 (H460; Table 3, B-2 series, 48 hrs) [nM]	melting point [°C]	IC50 (HL-60; Table 3, B-2 series, 48 hrs) [nM]	IC50 (HT29/5FuR) [nM]	IC50 (Hep3B; Table 1, 48 h, MTT) [nM]	IC50 (HCT116) [nM]	IC50 (H460; Table 1, 48 h, MTT) [nM]	IC50 (HL-60; Table 1, 48 h, MTT) [nM]	Compound	IC50 (Detroit 551; [2]) [nM]	IC50 (MES-SA/Dx5; Table 3, B-2 series) [nM]	Ratio Of SA/Dx5 (MES-SA/Dx5; Table 3, B-2 series)	IC50 (MES-SA; Table 3, B-2 series) [nM]	IC50 (Detroit 551; [3]) [nM]	cytotoxicity (in words) [1]	further results
220	190	272 to 274	6						COc1ccc(OC)c(C2=Nc3ccc(N4CCCC4)cc3C(=O)C2)c1 [Compound 129, 2-(2,5-Dimethoxyphenyl)-6-pyrrolidinoquinolin-4-one]	5000	216	0.94	229			
280	400	364 to 367	9						O=C1CC(c2cccc(O)c2)=Nc2ccc(N3CCCC3)cc21 [Compound 138, 2-(3-Hydroxyphenyl)-6-pyrrolidinoquinolin-4-one]	1390	320	0.23	734			
		350 to 352							O=C1CC(c2cccc3c2OCO3)=Nc2ccc(N3CCOCC3)cc21 [Compound 124, 2-(Benzo[d][1,3]-dioxol-4-yl)-6-morpholinoquinolin-4-one]							IC50 (Hep3B; Table 2, B-1 series, 48 hrs): 1500 nM; IC50 (Detroit 551; Homo sapiens, Table 2, B-1 series, 48 hrs): > 2500 nM; IC50 (MES-SA/Dx5; Table 2, B-1 series): 2100 nM; Ratio Of SA/Dx5 (MES-SA/Dx5; Table 2, B-1 series): 0.89; IC50 (MES-SA; Table 2, B-1 series): 2350 nM; IC50 (H460; Table 2, B-1 series, 48 hrs): 2130 nM; IC50 (HL-60; Table 2, B-1 series, 48 hrs): 720 nM
		282 to 283		690	1900	2100	4500	1000	O=C1CC(c2ccccc2F)=Nc2ccc3c(c21)OCO3 [Compound 19, 2-(2-Fluorophenyl)-5,6-methylenedioxyquinolin-4-one]					> 10000	significant cytotoxicity	
7380	6500		1620						O=C1CC(c2cc(O)ccc2O)=Nc2ccc(N3CCOCC3)cc21 [Compound 144a, 2-(2,5-dihydroxyphenyl)-6-morpholinoquinolin-4-one]	9100	25000	6.78	3690			
